Data from patent US10604552B2, “Generation of novel metabolite-responsive transcription regulator biosensors” (NORTHWESTERN UNIVERSITY, priority 2016, dated 2020).

Test system: TOP10 Escherichia coli cells
Format: cell-based
Conditions: 100 mM maltose; SP biosensor with No Sites or Go66 reporter
Experimental: All experiments were conducted in TOP10 Escherichia coli cells (F-mcrA Δ(mrr-hsdRMS-mcrBC) φ80lacZAM15 ΔlacX74 nupG recAl araD139 Δ(ara-leu)7697 galE15 galK16 rpsL(Str^R) endA1 λ^−) (Life Technologies). Cells were maintained in Lysogeny Broth (LB) Lennox formulation (10 g/L of tryptone, 5 g/L of yeast extract, 5 g/L of NaCl) supplemented with appropriate antibiotics (Ampicillin 100 μg/mL or Kanamycin 50 μg/mL). All experimental analysis was conducted in M9 minimal media (1×M9 salts, 0.2% Casamino Acids, 2 mM MgSO^4, 0.1 mM CaCl^2, 1 mM Thiamine HCl) containing glycerol (0.4%) as the primary carbon source. 1% arabinose and variable amounts of maltose monohydrate and isopropyl β-D-1-thiogalactopyranoside (IPTG) were added as indicated. M9 medium containing both Ampicillin and Kanamycin was used to maintain the strains that contained both a reporter plasmid and a biosensor plasmid.
Cultures were inoculated from single colonies into 2 mL of M9 media and grown overnight to stationary phase. Overnight cultures were diluted 1:20 and grown into exponential phase (OD600˜0.5). […] Plates with lids were incubated and shaken in a continuous double orbital pattern at 548 cpm (2 mm) inside a BioTek Synergy H1 plate reader for 10 h with GFP, mCherry, and OD600 measurements taken every 15 min. […]

## OC[C@H]1O[C@H](O[C@H]2[C@H](O)[C@@H](O)C(O)O[C@@H]2CO)[C@H](O)[C@@H](O)[C@@H]1O (mixture of isomers) [maltose]
  impact on cell growth: did not substantially impact cell growth
